What was measured:
purified HHAT = target: T1, purified HHAT (Homo sapiens, UniProt Q5VTY9); assay: Acyl-cLIP assay, inhibition of purified HHAT; format: biochemical; conditions: for IC50: purified HHAT, read-out: Acyl-cLIP Assay IC50 (CI95)
T1 construct: made in house
Experimental: The inhibitory potency of all 50 compounds against purified HHAT was quantified using the acylation-coupled lipophilic induction of polarization (acyl-cLIP) assay recently developed in our lab, a universally applicable assay for high-throughput analysis of protein–lipid transferases and hydrolases.[31],[40] In brief, in this assay a fluorescently labeled peptide based on the N-terminal sequence of SHH is incubated with N-dodecyl β-D-maltoside (DDM) solubilized purified HHAT, palmitoyl-CoA, and HHAT inhibitors. Binding of the lipidated peptide product to the DDM micelle results in decreased tumbling rate and an increase in polarization of fluorescence emission, enabling facile quantification of HHAT activity. Initially, % HHAT inhibition was determined at 50 μM and 25 μM for all analogues. […] HHAT is a 12-pass TM protein,[14] and we considered whether lipophilicity might bias inhibition; pIC50 values were compared to calculated log D, which indicated no significant correlation (SI, Table S1 and Figure S2). We concluded that lipophilicity is not a general driver of HHAT inhibitory potency.
The acyl-cLIP assay has been described previously.[40] Briefly, SHH-FAM peptide was diluted in buffer A (100 mM MES, 20 mM NaCl, 1 mM DTT, 1 mM TCEP, 0.1% BSA, pH 6.5) to a concentration of 2 μM. Palmitoyl-CoA (Sigma-Aldrich) was diluted in buffer A to 7.5 μM and recombinant HHAT (obtained by following the published protocol[14]) in buffer B (20 mM HEPES, 350 mM NaCl, 1% DDM, 5% glycerol, pH 7.3) diluted to 44 μg/mL. 1.5 μL of a 50 mM inhibitor DMSO stock was diluted with 18.5 μL of DMSO and further serial diluted (1:1). For each condition, 6 μL of the HHAT working stock and […] of the SHH-peptide working stock were mixed with 3 μL of the corresponding inhibitor concentration or DMSO vehicle. Twelve μL/well of this mixture was split into four wells of a black 384 well plate. To start the reaction, 8 μL of the Pal-CoA working stock were added to each well and fluorescence anisotropy and the total fluorescence recorded on an EnVision Xcite 2104 (PerkinElmer) over 30 min (emission filter 1 = FITC FP P-pol 535; emission filter 2 = FITC S-pol 535; excitation filter: FITC FP 480; measurement height = 6.5 mm; detector gain = 0; high concentration gain). Initial rate constants were determined by linear regression and normalized to DMSO control and samples with buffer B instead of HHAT. IC50 values were extracted from the corresponding dose response curves using a “sigmoidal dose response (variable slope)” model in GraphPad Prism 5 (GraphPad Software, Inc.).

[1] = MTS assay, cytotoxicity (72 h); format: cell-based; conditions: human, HEK293a SHH+ cells, 72 h; for CC50 at 72 h: read-out: MTS Assay (HEK293a SHH+) CC50 (CI95)
Experimental: The survival of HEK293a SHH^+ cells is independent of HH signaling,[35] therefore, the cytotoxicity of analogues was tested using the MTS assay to investigate off-target toxicity. In this assay, HEK293a SHH^+ cells were treated with DMSO vehicle or varying concentrations of analogues for 72 h. Subsequently, a mixture of 1-methoxy phenazine methosulfate (PMS) and [3-(4,5-dimethylthiazol-2-yl)-5-(3-carboxymethoxyphenyl)-2-(4-sulfophenyl)-2H-tetrazolium] (MTS) was added to enable quantification of cell number via colorimetric analysis. […] Compounds 3, 17, 19, 32, 34, 38, and 45, which all contain a 2-((2-methylbutyl)amino)acetyl, were toxic to HEK293a SHH^+ cells, as were ureas 26, 40, and 41.
HEK293a SHH^+ cells were plated at 5000 cells/well in a 96-well plate (Nunc) using a volume of 50 μL/well and cultured for 24 h as described. Cells were treated with 100 μL/well of either DMSO vehicle, Puromycin (2 μg/mL), or stated analogues (0.14–100 μM final) in DMEM supplemented with 10% FBS. After 72 h, 20 μL/well of a mixture of 1-methoxy phenazine methosulfate (PMS) and [3-(4,5-dimethylthiazol-2-yl)-5-(3-carboxymethoxyphenyl)-2-(4-sulfophenyl)-2H-tetrazolium] (MTS) at a ratio of MTS/PMS = 2/0.92 mg/mL in PBS was added and the plates were incubated for 3 h at 37 °C. Subsequently, the absorption at 490 nm was recorded using an EnVision Xcite 2104 (PerkinElmer), and the response was normalized to vehicle control and Puromycin treated samples. Dose response curves were fitted to a “sigmoidal dose response (variable slope)” model using GraphPad Prism 5 (GraphPad Software, Inc.).

T1 sequence (Q5VTY9 whole entry): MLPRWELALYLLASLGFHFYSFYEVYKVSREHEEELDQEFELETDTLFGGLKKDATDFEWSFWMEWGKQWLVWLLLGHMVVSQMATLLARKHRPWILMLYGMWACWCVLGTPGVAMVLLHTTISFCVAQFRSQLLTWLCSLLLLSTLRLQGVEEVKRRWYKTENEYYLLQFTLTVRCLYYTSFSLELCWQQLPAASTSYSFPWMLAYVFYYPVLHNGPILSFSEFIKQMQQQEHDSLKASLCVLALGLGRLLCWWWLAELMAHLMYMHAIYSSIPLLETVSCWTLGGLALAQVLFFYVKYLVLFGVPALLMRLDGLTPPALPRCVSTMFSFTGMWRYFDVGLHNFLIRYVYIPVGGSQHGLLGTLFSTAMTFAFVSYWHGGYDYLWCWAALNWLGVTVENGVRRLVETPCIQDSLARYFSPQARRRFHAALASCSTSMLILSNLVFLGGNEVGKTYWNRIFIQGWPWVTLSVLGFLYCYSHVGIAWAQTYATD

| HHAT inhibition in the acyl-cLIP assay (purified HHAT) | inhibition at 25 µM (purified HHAT) [%] | inhibition at 50 µM (purified HHAT) [%] | IC50 (purified HHAT) [µM] | SMILES | CC50 at 72 h [1] [µM] | viability at 72 h, 12.5 µM [1] [%] | viability at 72 h, 25 µM [1] [%] |
| --- | --- | --- | --- | --- | --- | --- | --- |
| loss of potency | 7 ± 1 | 12 ± 1 | > 25 | C=CC(=O)N1CCn2cccc2C1c1ccccc1 (stereo not shown) [Compound 46, 1-(1-Phenyl-3,4-dihydropyrrolo[1,2-a]pyrazin-2(1H)-yl)prop-2-en-1-one] | > 100 | 96 ± 2 | 97 ± 2 |
| complete loss of HHAT inhibition | 7 ± 3 | 8 ± 2 | > 100 | CCC(C)CNCC(=O)N1CCc2cc(OC)c(OC)cc2C1c1ccccc1 (stereo not shown) [Compound 44, 1-(6,7-Dimethoxy-1-phenyl-3,4-dihydroisoquinolin-2(1H)-yl)-2-((2-methylbutyl)amino)ethan-1-one] | > 100 | 96 ± 3 | 95 ± 5 |
| loss of activity | 6 ± 7 | 8 ± 7 | > 25 | CC(=O)N1CCc2sccc2C1C1CCCCC1 (stereo not shown) [Compound 35] |  | 54 ± 2 | 59 ± 3 |
|  | -2 ± 3 | -3 ± 2 | > 25 | C=CC(=O)N1CCCCC1c1ccccc1 (stereo not shown) [Compound 48, 1-(2-Phenylpiperidin-1-yl)prop-2-en-1-one] | > 100 | 93 ± 2 | 90 ± 2 |
|  | 24 ± 1 | 31 ± 1 | > 25 | CC(=O)N1CCc2sccc2C1c1ccccc1O (stereo not shown) [Compound 33] | > 100 | 88 ± 3 | 87 ± 5 |
| loss of activity | 6 ± 6 | 4 ± 6 | > 25 | CCCCCCCC(=O)N1CCc2sccc2C1c1ccccc1 (stereo not shown) [Compound 13, 1-(4-Phenyl-6,7-dihydrothieno[3,2-c]pyridin-5(4H)-yl)octan-1-one] |  | 47 ± 1 | 35 ± 2 |
|  | -14 ± 2 | -3 ± 2 | > 25 | CC(=O)N1CCCCC1c1ccccc1 (stereo not shown) [Compound 47, 1-(2-Phenylpiperidin-1-yl)ethan-1-one] | > 50 | 95 ± 2 | 93 ± 5 |
| no inhibitory activity | 4 ± 7 | 27 ± 6 | > 100 | CC(=O)N1CCc2sccc2[C@H]1c1cccc(C)n1 [Compound 27, (S)-1-(4-(6-Methylpyridin-2-yl)-6,7-dihydrothieno[3,2-c]pyridin-5(4H)-yl)ethan-1-one] | > 100 | 90 ± 4 | 89 ± 3 |
| inactive | 9 ± 10 | -2 ± 19 | > 25 | Cc1cccc(C2NCCc3sccc32)n1 (stereo not shown) [Compound 20] |  | 82 ± 2 | 68 ± 3 |
|  | 8 ± 1 | 3 ± 1 | > 25 | CCC(C)CNCC(=O)N1CCCCC1c1ccccn1 (stereo not shown) [Compound 50, 2-((2-Methylbutyl)amino)-1-(2-(pyridin-2-yl)piperidin-1-yl)ethan-1-one] | > 100 | 88 ± 2 | 86 ± 2 |

| SMILES | HHAT inhibition in the acyl-cLIP assay (purified HHAT) | inhibition at 25 µM (purified HHAT) [%] | inhibition at 50 µM (purified HHAT) [%] | IC50 (purified HHAT) [µM] | CC50 at 72 h [1] [µM] | viability at 72 h, 12.5 µM [1] [%] | viability at 72 h, 25 µM [1] [%] |
| --- | --- | --- | --- | --- | --- | --- | --- |
| CC(C)CNCC(=O)N1CCc2ccccc2C1c1ccccc1 (stereo in doubt) [Compound 42, (S)-2-((2-Methylpropyl)amino)-1-(1-phenyl-3,4-dihydroisoquinolin-2(1H)-yl)ethan-1-one] | no inhibitory activity | 6 ± 2 | 7 ± 2 | > 100 | > 100 | 92 ± 4 | 91 ± 2 |

From publication PMC10823475, “Design, Synthesis, and Evaluation of Inhibitors of Hedgehog Acyltransferase” (Journal of Medicinal Chemistry, 2024)
